Experimental findings from article PMC7838546, “A Thermostable, Modified Cathelicidin-Derived Peptide With Enhanced Membrane-Active Activity Against Salmonella enterica serovar Typhimurium” (Frontiers in Microbiology, 2021) are described below.

Assay [1] deals with Salmonella enterica serovar Typhimurium ATCC 13311. The assay is classed as cell-based. Particulars: ATCC 13311, standard strain, triplicate; for MIC: broth microdilution, ~10^7 CFU/ml, 37°C, 24 h. As for the experimental part: (§1) Salmonella enterica serovar Typhimurium ATCC 13311, 24 drug-resistant foodborne and eleven drug-resistant human borne S. enterica serovar Typhimurium and 4,5,12:i:- isolates (Table 1) were used as test microorganisms. They were previously isolated for molecular characterization in 2014 and kindly provided by Dr. Soraya Chaturongakul (Mahidol University, Thailand) ([Huoy et al., 2014]). All bacteria were cultured in Tryptic Soy Broth (TSB) and incubated at 37°C for 18 h. Mueller Hinton Broth (MHB) was then used to wash and rinse the bacteria. The bacterial suspensions were then diluted to obtain concentrations of 10^7 CFU/ml for inoculations.
(§2) A modified version of the National Committee for Clinical Laboratory Standards (NCCLS) broth microdilution method ([Steinberg et al., 1997]) was used to determine the minimum inhibitory concentrations (MICs) of peptide and compared to that of nisin. Fifty microliters of two-fold serial dilutions of each peptide [0.98–250 μg/ml in 0.01% (v/v) acetic acid and 0.2% (w/v) bovine serum albumin (BSA, Sigma-Aldrich, MO, United States)], were incubated with 50 μl of bacterial suspensions (approximately 10^7 CFU/ml) at 37°C for 24 h in a shaking incubator. MICs were taken as the lowest concentration of peptide at which growth was inhibited as observed by visual inspection. Bacterial cultures without peptides and uncultured broth were used as positive and negative controls, respectively. Minimal bactericidal concentrations (MBCs) were determined using a colony count assay ([Clinical Laboratory Standards Institute [CLSI], 2015]). Fifty microliters of samples from each non-turbid well in the MIC determination experiment was plated on Mueller Hinton Agar (MHA) and colonies were observed after overnight incubation at 37°C. MBCs were designated as the least concentration showing no colony growth on the plate. All of experiments were performed in triplicate.
Background: Broth dilution looks for growth in wells or tubes with falling amounts of substance.

The subject of assay [2] is S. enterica serovar 4,5,12:i:- H2-042 (foodborne isolate). Type of assay: cell-based, Salmonella enterica serovar 4,5,12:i:-. The settings on record: H2-042, pork intestine, resistant Amp, C, T, SxT, intermediate Cp; for MIC: broth microdilution, 37°C, 24 h. How it is done: as §1, §2
In assay [3] the test system is S. enterica serovar 4,5,12:i:- H1-102 (clinical isolate). The assay is classed as cell-based, Salmonella enterica serovar 4,5,12:i:-. The settings on record: H1-102, stool, resistant Amp, C, T, SxT, intermediate Amc; for MIC: broth microdilution, 37°C, 24 h. How it is done:
as §1, §2

The subject of assay [4] is S. enterica serovar 4,5,12:i:- H2-044 (foodborne isolate). The assay is classed as cell-based, Salmonella enterica serovar 4,5,12:i:-. Particulars: H2-044, pork kidney, resistant Amp, C, T, SxT, intermediate Cp; for MIC: broth microdilution, 37°C, 24 h. As for the experimental part: as §1, §2
The test system of assay [5] is S. enterica serovar 4,5,12:i:- H1-024 (clinical isolate). Type of assay: cell-based, Salmonella enterica serovar 4,5,12:i:-. The settings on record: H1-024, rectal swab, resistant Amc, Amp, Ctx, C, NA, SxT, intermediate Cp; for MIC: broth microdilution, 37°C, 24 h. As for the experimental part:
as §1, §2

Assay [6] deals with S. enterica serovar 4,5,12:i:- H2-070 (foodborne isolate). Type of assay: cell-based, Salmonella enterica serovar 4,5,12:i:-. Particulars: H2-070, pork liver, resistant Amp, Ctx, C, T, SxT, intermediate Cp; for MIC: broth microdilution, 37°C, 24 h. How it is done: as §1, §2
The subject of assay [7] is S. enterica serovar 4,5,12:i:- H2-049 (foodborne isolate). Type of assay: cell-based, Salmonella enterica serovar 4,5,12:i:-. Particulars: H2-049, pork intestine, resistant Amp, T, broth microdilution, 37°C, 24 h. As for the experimental part:
as §1, §2

Assay [8] has as its system S. enterica serovar 4,5,12:i:- H2-054 (foodborne isolate). Type of assay: cell-based, Salmonella enterica serovar 4,5,12:i:-. Particulars: H2-054, pork intestine, resistant Amp, T; for MIC: broth microdilution, 37°C, 24 h. As for the experimental part:
as §1, §2

For assay [9], the system named is S. enterica serovar 4,5,12:i:- H2-043 (foodborne isolate). Type of assay: cell-based, Salmonella enterica serovar 4,5,12:i:-. Particulars: H2-043, pork heart, resistant Amp, T, intermediate Cp; for MIC: broth microdilution, 37°C, 24 h. How it is done: as §1, §2
The test system of assay [10] is S. enterica serovar 4,5,12:i:- H2-009 (foodborne isolate). The assay is classed as cell-based, Salmonella enterica serovar 4,5,12:i:-. The settings on record: H2-009, pork fat, resistant Amp, C, T, broth microdilution, 37°C, 24 h. How it is done: as §1, §2
The test system of assay [11] is S. enterica serovar 4,5,12:i:- H2-010 (foodborne isolate). The assay is classed as cell-based, Salmonella enterica serovar 4,5,12:i:-. Particulars: H2-010, pork skin, resistant Amp, C, T, broth microdilution, 37°C, 24 h. How it is done:
as §1, §2

In assay [12] the test system is S. enterica serovar 4,5,12:i:- H2-075 (foodborne isolate). The assay is classed as cell-based, Salmonella enterica serovar 4,5,12:i:-. The settings on record: H2-075, pork intestine, resistant Amp, T; for MIC: broth microdilution, 37°C, 24 h. As for the experimental part:
as §1, §2

Assay [13] concerns S. enterica serovar 4,5,12:i:- H2-045 (foodborne isolate). The assay is classed as cell-based, Salmonella enterica serovar 4,5,12:i:-. The settings on record: H2-045, pork intestine, resistant Amp, T, intermediate Cp; for MIC: broth microdilution, 37°C, 24 h. How it is done:
as §1, §2

In assay [14] the test system is S. enterica serovar 4,5,12:i:- H2-039 (foodborne isolate). The assay is classed as cell-based, Salmonella enterica serovar 4,5,12:i:-. Particulars: H2-039, pork intestine, resistant Amp, T; for MIC: broth microdilution, 37°C, 24 h. How it is done: as §1, §2
For assay [15], the system named is S. enterica serovar 4,5,12:i:- H1-100 (clinical isolate). Type of assay: cell-based, Salmonella enterica serovar 4,5,12:i:-. Particulars: H1-100, stool, resistant Amp, C, Cp, T, SxT, intermediate Amc, NA; for MIC: broth microdilution, 37°C, 24 h. How it is done: as §1, §2
The subject of assay [16] is S. enterica serovar Typhimurium H1-011 (clinical isolate). Type of assay: cell-based, Salmonella enterica serovar Typhimurium. Particulars: H1-011, stool, resistant Amp, T, intermediate Amc, Ctx, Cp, NA; for MIC: broth microdilution, 37°C, 24 h. How it is done:
as §1, §2

Ends that are not written are not given here.

Consider KIAKRIWKILRR-NH2 [P7], for which the MIC in [1] was 3.91 (3.91) μg/ml; in assay [2], 7.81 (7.81) μg/ml; in [3], 7.81 (7.81) μg/ml; in [4] it was 7.81 (7.81) μg/ml; in assay [5], 3.91 (3.91) μg/ml; in assay [6], 7.81 (7.81) μg/ml. Also, the MIC in assay [7] is 3.91 µg/mL; in assay [8] it was 7.81 (7.81) μg/ml; in [9], 7.81 (7.81) μg/ml; in assay [10], 3.91 µg/mL; in assay [11], 3.91 µg/mL; in assay [12], 7.81 (7.81) μg/ml. The MIC in [13] is on record as 7.81 (7.81) μg/ml; in [14], 3.91 (3.91) μg/ml; in [15], 7.81 (7.81) μg/ml; in assay [16] it was 7.81 (7.81) μg/ml. Further, the MBC in [1] (colony count on MHA) was 3.91 (3.91) μg/ml; in assay [2] (colony count on MHA) it was 7.81 (7.81) μg/ml; in [3] (colony count on MHA), 7.81 (7.81) μg/ml; in assay [4] (colony count on MHA), 7.81 (7.81) μg/ml; in assay [5] (colony count on MHA), 3.91 (3.91) μg/ml; in [6] (colony count on MHA), 7.81 (7.81) μg/ml. In addition, the MBC is listed as 7.81 (7.81) μg/ml in assay [8] (colony count on MHA); 7.81 (7.81) μg/ml in assay [9] (colony count on MHA); 7.81 (7.81) μg/ml in assay [12] (colony count on MHA); 7.81 (7.81) μg/ml in assay [13] (colony count on MHA); 3.91 (3.91) μg/ml in assay [14] (colony count on MHA); 7.81 (7.81) μg/ml in [15] (colony count on MHA). In addition, the MBC in [16] (colony count on MHA) is recorded as 7.81 (7.81) μg/ml.

As for “Nisin: authorized food preservative peptide, binds lipid II and forms membrane pores (ITSISLCTPGCKTGALMGCNMKTATCHCSIHVSK; cysteine pairing not given here; also: lantibiotic nisin-A; UniProt P13068 24-57, looked up)”, the MIC in assay [1], in assay [2], in [3], in [4], in assay [5] and in [6] was above 1000 µg/mL in each case. In addition, the MIC in [7], in assay [8], in [9], in assay [10], in assay [11] and in assay [12] was above 1000 µg/mL each time. The MIC in assay [13], in [14], in assay [15] and in [16] was above 1000 µg/mL in each case.
